Some test systems named below: DU-145 prostate; HCT-116 colon; HL-60(TB) leukemia; HOP-62 NSCLC; HS 578T breast; IGROV1 ovarian; LOX IMVI melanoma; MALME-3M melanoma; MOLT-4 leukemia; OVCAR-3 ovarian; OVCAR-4 ovarian; OVCAR-5 ovarian; OVCAR-8 ovarian; SNB-75 CNS; T-47D breast; UACC-257 melanoma; UO-31 renal.
Common to all, as to test: growth of human tumour cells (NCI), 48 h

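In this assay, cells in 96-well plates receive the compound at five concentrations for 48 hours. Endpoints are linearly interpolated between the surrounding concentrations. TGI: concentration producing complete growth inhibition.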

Turning to `COc1ccc([C@H]2C=C(c3cc(F)c(Cl)cc3Cl)NC(=S)N2)cc1`, the TGI with DU-145 prostate was > 100 µM; in the experiment on HCT-116 colon it was 84.9 µM; with HL-60(TB) leukemia, 35.7 µM; with HOP-62 NSCLC, > 100 µM; with HS 578T breast, > 100 µM; with IGROV1 ovarian, > 100 µM. Besides, the TGI in the experiment with LOX IMVI melanoma, with MALME-3M melanoma, with MOLT-4 leukemia, in the experiment on OVCAR-3 ovarian, in the experiment with OVCAR-4 ovarian and in the experiment with OVCAR-5 ovarian was > 100 µM in each case. The TGI is > 100 µM with OVCAR-8 ovarian; 66.5 µM in the experiment on SNB-75 CNS; > 100 µM in the experiment on T-47D breast; 76.2 µM with UACC-257 melanoma; > 100 µM with UO-31 renal.
As for `CO[C@@H]1C=C[C@@]23c4cc5c(cc4C(O)N(CC2O)C3C1)OCO5` (stereo not given in full), the TGI with DU-145 prostate is 50.7 µM; with HCT-116 colon it was 21.3 µM; in the experiment on HL-60(TB) leukemia it was 5.64 µM; with HOP-62 NSCLC it was > 100 µM; in the experiment with HS 578T breast it was > 100 µM; in the experiment on IGROV1 ovarian, 68.9 µM. Further, the TGI with LOX IMVI melanoma is 48.5 µM; in the experiment with MALME-3M melanoma it was > 100 µM; with MOLT-4 leukemia it was > 100 µM; with OVCAR-3 ovarian, 58.8 µM; in the experiment with OVCAR-4 ovarian, 19.4 µM; with OVCAR-5 ovarian, 79.3 µM. Further, the TGI in the experiment on OVCAR-8 ovarian was > 100 µM; with SNB-75 CNS, 6.92 µM; in the experiment on T-47D breast it was 8.01 µM; with UACC-257 melanoma, 5.9 µM; in the experiment with UO-31 renal, 36.8 µM.
In the case of `O=C(NCCNCCNCCNC(=O)c1cc(-c2ccccc2)nc2ccccc12)c1cc(-c2ccccc2)nc2ccccc12`, the TGI is 11.8 µM in the experiment with DU-145 prostate; 3.39 µM in the experiment on HCT-116 colon; 3.85 µM in the experiment with HL-60(TB) leukemia; 5.96 µM in the experiment on HOP-62 NSCLC; 4.96 µM in the experiment with HS 578T breast; 7.52 µM with IGROV1 ovarian. In addition, the TGI worked out at 3.03 µM in the experiment with LOX IMVI melanoma; 3.31 µM in the experiment with MALME-3M melanoma; 4.22 µM in the experiment on MOLT-4 leukemia; 8.11 µM in the experiment on OVCAR-3 ovarian; 13.8 µM with OVCAR-4 ovarian; 4.94 µM in the experiment with OVCAR-5 ovarian. Also, the TGI came out at 3.85 µM in the experiment with OVCAR-8 ovarian; 3.44 µM in the experiment on SNB-75 CNS; 7.66 µM with T-47D breast; 3.17 µM with UACC-257 melanoma; 18 µM in the experiment with UO-31 renal.
In the case of `CC1=C(C#N)C2C(=C(N)Oc3ccccc32)C(N)=N1` (stereo not given), the TGI is 60.9 µM in the experiment with DU-145 prostate; > 100 µM in the experiment with HCT-116 colon; > 100 µM in the experiment with HL-60(TB) leukemia; > 100 µM with HOP-62 NSCLC; 72.1 µM with HS 578T breast; 76.7 µM in the experiment with IGROV1 ovarian. Further, the TGI with LOX IMVI melanoma was 81.7 µM; in the experiment with MALME-3M melanoma, 35.5 µM; with MOLT-4 leukemia it was > 100 µM; in the experiment with OVCAR-3 ovarian, > 100 µM; with OVCAR-4 ovarian, 77.7 µM; in the experiment on OVCAR-5 ovarian it was 91.6 µM. Further, the TGI in the experiment with OVCAR-8 ovarian worked out at 56.8 µM; in the experiment on SNB-75 CNS, 64.1 µM; in the experiment with T-47D breast it was 78.2 µM; in the experiment on UACC-257 melanoma it was 69.6 µM; in the experiment with UO-31 renal, 41.2 µM.
Consider `COC(=O)[C@@H]1C2OC(C)(C)OC2CN1C(=O)OCc1ccccc1` (stereo not given in full), for which the TGI in the experiment with DU-145 prostate, with HCT-116 colon, in the experiment with HL-60(TB) leukemia, with HOP-62 NSCLC, with HS 578T breast and in the experiment with IGROV1 ovarian was > 100 µM throughout. Moreover, the TGI in the experiment on LOX IMVI melanoma, with MALME-3M melanoma, in the experiment with MOLT-4 leukemia, in the experiment on OVCAR-3 ovarian, in the experiment on OVCAR-4 ovarian and in the experiment with OVCAR-5 ovarian was > 100 µM each time. In addition, the TGI in the experiment with OVCAR-8 ovarian, in the experiment on SNB-75 CNS, in the experiment with T-47D breast, in the experiment on UACC-257 melanoma and in the experiment with UO-31 renal was > 100 µM throughout.
As for `CC(C)(C)CC(C)(C)N=C(N)NO`, the TGI with DU-145 prostate, in the experiment with HCT-116 colon, in the experiment with HL-60(TB) leukemia, with HOP-62 NSCLC, in the experiment with HS 578T breast and in the experiment on IGROV1 ovarian was > 100 µM each time. In addition, the TGI with LOX IMVI melanoma, with MALME-3M melanoma, in the experiment on MOLT-4 leukemia, with OVCAR-3 ovarian, with OVCAR-4 ovarian and with OVCAR-5 ovarian was > 100 µM each time. The TGI in the experiment on OVCAR-8 ovarian was > 100 µM; in the experiment on SNB-75 CNS, > 100 µM; in the experiment on T-47D breast it was > 100 µM; with UACC-257 melanoma, > 100 µM; in the experiment on UO-31 renal, > 80.2 µM.
As to `C[C@]12CC[C@H](O)C=C1CC[C@@H]1[C@@H]2CC[C@]2(C)C(=N/O)/C(=C/c3ccncc3)C[C@@H]12`, the TGI with DU-145 prostate was 19.9 µM; with HCT-116 colon, 18.7 µM; with HL-60(TB) leukemia it was 35.4 µM; with HOP-62 NSCLC, 30.9 µM; with HS 578T breast, > 100 µM; with IGROV1 ovarian, 81.6 µM. The TGI in the experiment on LOX IMVI melanoma is > 100 µM; with MALME-3M melanoma, 48.5 µM; with MOLT-4 leukemia, > 100 µM; in the experiment with OVCAR-3 ovarian, 19.1 µM; in the experiment with OVCAR-4 ovarian it was 76 µM; in the experiment on OVCAR-5 ovarian, 43.8 µM. The TGI amounted to 76 µM in the experiment with OVCAR-8 ovarian; 43.8 µM in the experiment with SNB-75 CNS; 44.4 µM in the experiment on T-47D breast; 32.8 µM with UACC-257 melanoma; 20.5 µM with UO-31 renal.
For the molecule `Cn1c(Sc2ccc(-c3cccnc3)n2C)ccc1-c1cccnc1`, the TGI came to 33.5 µM in the experiment with DU-145 prostate; 25.7 µM in the experiment on HCT-116 colon; 5.78 µM with HL-60(TB) leukemia; 36 µM with HOP-62 NSCLC; 9.76 µM in the experiment with HS 578T breast; 31.9 µM in the experiment on IGROV1 ovarian. The TGI with LOX IMVI melanoma was found to be 15.8 µM; with MALME-3M melanoma it was 23.3 µM; in the experiment on MOLT-4 leukemia, 7.78 µM; with OVCAR-3 ovarian, 27.3 µM; in the experiment on OVCAR-4 ovarian, 36.6 µM; with OVCAR-5 ovarian, 50.9 µM. Further, the TGI was determined as 41.2 µM in the experiment on OVCAR-8 ovarian; 46.9 µM with SNB-75 CNS; 44.2 µM with T-47D breast; 29.1 µM in the experiment with UACC-257 melanoma; 33.4 µM in the experiment with UO-31 renal.
`CCCN(CCC)c1cc2c(cc1F)c(=O)c(C(=O)O)cn2-c1ccc(N2CCN(C)CC2)cn1`: the TGI in the experiment with DU-145 prostate is 45.3 µM; in the experiment with HCT-116 colon it was 28.9 µM; with HL-60(TB) leukemia, 26.1 µM; with HOP-62 NSCLC it was 31.4 µM; in the experiment with HS 578T breast, 35.1 µM; in the experiment with IGROV1 ovarian, 27.6 µM. For the same molecule, the TGI in the experiment with LOX IMVI melanoma came out at 9.65 µM; in the experiment with MALME-3M melanoma, 27.9 µM; with MOLT-4 leukemia, 43.4 µM; in the experiment with OVCAR-3 ovarian, 29.7 µM; with OVCAR-4 ovarian, 43.3 µM; in the experiment on OVCAR-5 ovarian, 41.3 µM. Moreover, the TGI in the experiment on OVCAR-8 ovarian worked out at 27.3 µM; in the experiment with SNB-75 CNS, 28.3 µM; in the experiment on T-47D breast, 38.8 µM; in the experiment on UACC-257 melanoma, 36.4 µM; in the experiment on UO-31 renal, 32.2 µM.
As for `Cn1c(=O)c2c(nc(N)n2C2OC(CO)C(O)C2O)n(C)c1=O` (stereo not given), the TGI with DU-145 prostate, in the experiment on HCT-116 colon, with HL-60(TB) leukemia, in the experiment with HOP-62 NSCLC, in the experiment on HS 578T breast and with IGROV1 ovarian was > 100 µM in each case. Also, the TGI in the experiment with LOX IMVI melanoma, in the experiment with MALME-3M melanoma, in the experiment with MOLT-4 leukemia, in the experiment on OVCAR-3 ovarian, in the experiment with OVCAR-4 ovarian and in the experiment with OVCAR-5 ovarian was > 100 µM each time. The TGI in the experiment with OVCAR-8 ovarian, in the experiment on SNB-75 CNS, with T-47D breast, in the experiment with UACC-257 melanoma and in the experiment with UO-31 renal was > 100 µM throughout.

Source of the values: PubChem BioAssay (NCI).
